Test results from PubChem BioAssay (NCI).
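Dose response: 5 concentrations. Exposure: 48 h. Format: 96-well plates. Endpoint: linear interpolation; highest concentration if not reached. At the GI50, growth is halved. Definition used: TGI = concentration required for complete inhibition of growth.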

What was measured:
Experiment in all cases: inhibition of tumour cell growth, NCI panel, 48 h
HCC-2998 colon = tested on: HCC-2998 colon
NCI-H460 lung = tested on: NCI-H460 lung
SNB-19 CNS = tested on: SNB-19 CNS
UACC-62 melanoma = tested on: UACC-62 melanoma
DLD-1 colon = tested on: DLD-1 colon
DMS 273 small cell lung = tested on: DMS 273 small cell lung
KM20L2 colon = tested on: KM20L2 colon
LXFL 529 NSCLC = tested on: LXFL 529 NSCLC
SNB-78 CNS = tested on: SNB-78 CNS
DMS 114 small cell lung = tested on: DMS 114 small cell lung
M19-MEL melanoma = tested on: M19-MEL melanoma

| SMILES | TGI (HCC-2998 colon) | TGI (NCI-H460 lung) | TGI (SNB-19 CNS) | TGI (UACC-62 melanoma) | other results |
| --- | --- | --- | --- | --- | --- |
| CC(C)/C(Cl)=N\OC(=O)Nc1ccc(S(N)(=O)=O)cc1 | 32.7 µM | 41.6 µM | > 78.7 µM | 37 µM | – |
| CCOc1cc2c(cc1O)/C(=N\OC)C[C@@H]1[C@@H]2CC[C@]2(C)[C@@H](O)CC[C@@H]12 | 14.4 µM | 37.3 µM | > 100 µM | 24 µM | – |
| CCOC(=O)N1CCC2(CC1)C[C@](C)(C(C)=O)C(C)O2 (some centres not stated) | > 100 µM | > 100 µM | > 100 µM | > 100 µM | – |
| CC[C@@]1(O)C(=O)OCc2c1cc1n(c2=O)Cc2c-1nc1ccccc1c2/C=N\NC(=O)CN | > 47.4 µM | 4.66 µM | – | 0.842 µM | – |
| COc1cc(/C=C2\S/C(=N/Nc3nc(-c4ccc(Br)cc4)cs3)NC2=O)cc(OC)c1OC | 32.5 µM | 37.4 µM | 67.7 µM | 25.4 µM | – |
| COC(=O)c1cc2c(n1S(=O)(=O)c1ccc(C)cc1)C(=O)C(=O)c1[nH]cc(C(=O)OCc3ccccc3)c1-2 | 0.634 µM | 2.83 µM | 0.441 µM | 0.138 µM | – |
| COc1cc(/C=C/C(=N\NS(=O)(=O)c2ccc(C)cc2)c2sc(NNC(C)=O)nc2C)ccc1O | > 100 µM | > 100 µM | > 100 µM | > 100 µM | – |
| CCC[C@@H](O)C[C@@H]1CCC[C@H](C[C@@H](O)CC)N1C | > 100 µM | – | > 100 µM | > 100 µM | – |
| O=c1[nH][nH]c(=O)n1Cc1ccccc1Cn1c(=O)[nH][nH]c1=O | – | > 100 µM | > 100 µM | > 100 µM | – |
| O=C1OCC(O)=C1C(c1ccc(Cl)cc1)c1cc2c(cc1O)OCO2 (configuration not stated) | > 100 µM | > 100 µM | > 100 µM | > 100 µM | – |
| CC(C)c1ccc(/C=C2/C=C(c3ccc4ccccc4c3)OC2=O)cc1 | > 100 µM | > 100 µM | > 100 µM | > 100 µM | – |
| O=C1CCC(=O)N1n1c(Cc2ccccc2)n[nH]c1=O | > 100 µM | > 100 µM | > 100 µM | > 100 µM | – |
| O=S1(=O)NC(=NCc2c[nH]c3ccccc23)N(c2ccccc2)c2ccncc21 | > 100 µM | > 100 µM | > 100 µM | > 100 µM | – |
| CCOC(=O)C(NC(C)=O)(Nc1ccc(F)cc1)C(F)(F)F (configuration not stated) | > 100 µM | > 100 µM | > 100 µM | > 100 µM | – |
| Clc1ccc(/C=C/c2nc3ccccc3s2)cc1Cl | > 100 µM | > 100 µM | > 100 µM | > 100 µM | – |
| Cc1ccccc1-n1c(=O)c2ncn(CCCl)c2n(-c2ccccc2C)c1=S | > 100 µM | > 100 µM | – | > 100 µM | – |
| COc1c(C)c(C/C=C(\C)CCCCO[Si](c2ccccc2)(c2ccccc2)C(C)(C)C)c(OC)c(OC)c1OC | > 46.4 µM | 25 µM | > 46.4 µM | > 46.4 µM | – |

| SMILES | TGI (HCC-2998 colon) | TGI (NCI-H460 lung) | TGI (SNB-19 CNS) | TGI (UACC-62 melanoma) | other results |
| --- | --- | --- | --- | --- | --- |
| CC(=O)O[C@H]1C(=O)[C@]2(C)[C@@H](OC(=O)OCCC(O)CO)C[C@H]3OC[C@@]3(OC(C)=O)[C@H]2[C@H](OC(=O)c2ccccc2)[C@]2(O)C[C@H](OC(=O)[C@H](O)[C@@H](NC(=O)c3ccccc3)c3ccccc3)C(C)=C1C2(C)C (some centres not stated) | 0.32 µM | 2.05 µM | 88.4 µM | 24.8 µM | – |
| CC(C)CC(=O)OC[n+]1ccc(-c2c(COC(=O)NC(C)C)c(COC(=O)NC(C)C)c3n2CCC3)cc1 | > 100 µM | > 100 µM | > 100 µM | > 100 µM | – |
| COc1ccc(C(OCC2OC(n3cc(C)c(=O)[nH]c3=O)CC2n2cc(Cn3cc(I)c(=O)[nH]c3=O)nn2)(c2ccccc2)c2ccccc2)cc1 (configuration not stated) | > 100 µM | – | > 100 µM | > 100 µM | – |
| O=C1/C(=C/c2ccc(O)cc2)CC/C1=C\c1ccc(O)cc1 | > 100 µM | > 100 µM | > 100 µM | > 100 µM | – |
| COc1ccc(N2C(=O)C3c4[nH]c5ccccc5c4C4CCC(C(C)(C)C)CC4C3C2=O)c(C)c1 (configuration not stated) | > 100 µM | > 100 µM | > 100 µM | > 100 µM | – |
| Cc1cc(N(CCC#N)CCC#N)ccc1/C(N=Nc1ccc(Cl)cc1)=N\NC(=O)c1ccccc1 | > 100 µM | > 100 µM | > 100 µM | > 100 µM | – |
| COc1ccc(CNc2nc(NCc3ccc(OC)c(OC)c3)nc(NC3CCCCC3)n2)cc1 | – | > 100 µM | > 100 µM | > 100 µM | – |
| CC1(C)N=C(/C(Cl)=[N+](/[O-])C(=O)c2ccc(F)cc2)C(C)(C)N1O | 35.4 µM | > 100 µM | > 100 µM | 33 µM | – |
| N.N.N.N.O=[N+]([O-])[O-].[Co+3].[N-]=[N+]=[N-].[N-]=[N+]=[N-] | > 100 µM | > 100 µM | > 100 µM | > 100 µM | GI50 (DLD-1 colon): > 100 µM; TGI (DLD-1 colon): > 100 µM; GI50 (DMS 273 small cell lung): > 100 µM; TGI (DMS 273 small cell lung): > 100 µM; GI50 (KM20L2 colon): > 100 µM; TGI (KM20L2 colon): > 100 µM; GI50 (LXFL 529 NSCLC): > 100 µM; TGI (LXFL 529 NSCLC): > 100 µM; GI50 (SNB-78 CNS): > 100 µM; TGI (SNB-78 CNS): > 100 µM |
| COc1ccc(C2c3cc4c(cc3OC(NNS(=O)(=O)c3ccc(C)cc3)C2C)OCO4)cc1 (configuration not stated) | > 100 µM | > 100 µM | > 100 µM | > 100 µM | – |
| Cc1cccc2c(=O)cc(-c3ccccc3)[nH]c12 | 18.1 µM | > 100 µM | > 100 µM | > 100 µM | TGI (DLD-1 colon): > 100 µM; TGI (DMS 114 small cell lung): > 100 µM; TGI (DMS 273 small cell lung): > 100 µM; TGI (KM20L2 colon): 19.4 µM; TGI (LXFL 529 NSCLC): > 100 µM; TGI (M19-MEL melanoma): > 100 µM |
| COc1cc([C@@H]2c3cc4c(cc3[C@@H](Nc3ccc([N+](=O)[O-])cc3C(=O)c3ccccc3)[C@H]3COC(=O)[C@H]23)OCO4)cc(OC)c1OC | > 100 µM | – | > 100 µM | > 100 µM | – |
| N#CC1=C(N)N(c2ccccc2)C(c2ccco2)C1(C#N)C#N (configuration not stated) | 31.3 µM | – | 71.4 µM | 59.3 µM | – |
| Cc1ccc(SCC(CSCCO)OCn2cnc3c2NC(N)=NC32OCCO2)cc1 (configuration not stated) | > 100 µM | > 100 µM | > 100 µM | – | – |
| Cc1ccsc1/C=N/Nc1ncccn1 | > 100 µM | – | > 100 µM | > 100 µM | – |
| Cc1cn(C2CC(n3cc(Cn4cc(I)c(=O)[nH]c4=O)nn3)C(CO)O2)c(=O)[nH]c1=O (configuration not stated) | > 100 µM | – | > 100 µM | > 100 µM | – |
